Test results reported in patent publication US9980927B2, “Use of tapentadol for inhibiting and/or treating depression and anxiety” (Gruenenthal GmbH, priority 2011, dated 2018).

Test system: patients with inadequately managed, severe chronic low back pain with or without a neuropathic pain component
Assay: Hospital Anxiety and Depression Scale (HADS) depression score; open-label phase IIIb trial, tapentadol prolonged release 50-250 mg bid for up to 12 weeks
Assay type: in vivo, human patients
Method: As used herein, the “depression score” is a value determining the degree of the depression. The scale of depression scores covers the range from 0 to 21, wherein the degree of the depression is high in case of high values and low in case of low values. In a group of tested subjects, typically the mean or mediate values of depression scores are determined. The mean value is the sum of all depression scores divided by the number of subjects. The mediate value is the middle depression score in the set of determined scores. Preferably, the “depression score” is defined as in the experimental section.
A subgroup suffering from neuropathic pain due to lumbar radiculopathy was also investigated.
This was a multicenter, multinational, open-label, effectiveness phase IIIb trial to evaluate effectiveness and safety of tapentadol prolonged release treatment in patients with inadequately managed, severe chronic low back pain with or without a neuropathic pain component. Patients taking WHO Step II analgesics discontinued those analgesics before starting study medication; patients taking Step I analgesics and/or centrally acting co-analgesics continued on the same dose. […] All patients received tapentadol prolonged release (50-250 mg bid) for up to 12 weeks (5-week titration period and a 7-week maintenance period). Tapentadol immediate release (IR) 50 mg (twice a day, hours apart) was permitted (combined total daily dose of tapentadol prolonged release and tapentadol IR, 500 mg/day). The primary efficacy endpoint was the change from Baseline to Week 6 (when tapentadol prolonged release doses were stable) in average pain intensity on the 11-point NRS-3 using the last observation carried forward (LOCF) for imputing missing scores. The painDETECT questionnaire was used to evaluate the likelihood of a neuropathic pain component of low back pain; patients were classified as painDETECT “negative,” “unclear,” or “positive.” The population of patients classified as painDETECT negative was limited to approximately 30% of the total population.
In the painDETECT positive trial population the “diagnosis of lumbar radiculopathy” was evaluated which was defined per study protocol according following criteria: • typical dermatomal pain (radiating beyond the knee towards the foot, pain evoked by stretching within distribution of the ischiadic/femoral nerve) • signs of root dysfunction: • such as sensory impairment, motor symptoms from compression of lumbar nerve root (L4, L5, S1). • and/or absent or diminished quadriceps femoris or triceps surae reflexes. • and/or quantitative sensory testing (QST) deficit and pain distribution present in the same dermatomal area.
All subjects completed Short Form-36 (SF-36) and EuroQol-5 Dimension (EQ-5D) questionnaires and the Hospital Anxiety and Depression Scale (HADS). The Patient Global Impression of Change (PGIC) and Clinical global impression of change (CGIC) were also used as secondary endpoints. For both tests, patients completed the statement, “since I began trial treatment, I would rate my overall condition as,” using 7 possible responses (“very much worse” to “very much improved”). Adverse events were recorded throughout the trial.
In the following • (i) N is the number of subjects of the specified diagnosis group, • (ii) n is the number of subjects with data available, • (iii) “Mean” is the mean score of the subjects, i.e. the sum of all scores is divided by the number of subjects, • (iv) SD is the standard deviation, • (v) “Median” is the median score of the subjects, i.e. the middle score in the set of scores, • (vi) “Range” is the range of scores of the subjects, i.e. the range defined by the lowest and the highest score of the set of scores. First, the depression scores are presented. The total number of subjects in the clinical study: N=175

[1] = Visit 8, presumed neuropathic pain component N=41
[2] = Visit 8, presumed or defined neuropathic
[3] = Visit 8, presumed or defined neuropathic pain component N=126
[4] = Visit 8, subjects with nociceptive pain N=49
[5] = Visit 9, defined neuropathic pain N=85
[6] = Visit 9, positive diagnosis of lumbar radiculopathy-neuropathic pain subset N=44
[7] = Visit 9, presumed neuropathic pain component N=41
[8] = Visit 9, presumed or defined neuropathic pain component N=126
[9] = Visit 9, subjects with nociceptive pain N=49
[10] = Visit 10, defined neuropathic pain N=85
[11] = Visit 10, positive diagnosis of lumbar radiculopathy-neuropathic pain subset N=44
[12] = Visit 10, presumed neuropathic pain component N=41
[13] = Visit 10, presumed or defined neuropathic pain component N=126
[14] = Visit 10, subjects with nociceptive pain N=49
[15] = Visit 11, defined neuropathic pain N=85
[16] = Visit 11, positive diagnosis of lumbar radiculopathy-neuropathic pain subset N=44
[17] = Visit 11, presumed neuropathic pain component N=41
[18] = Visit 11, presumed or defined neuropathic pain component N=126
[19] = Visit 11, subjects with nociceptive pain N=49
[20] = Visit 12, defined neuropathic pain N=85
[21] = Visit 12, positive diagnosis of lumbar radiculopathy-neuropathic pain subset N=44
[22] = Visit 12, presumed neuropathic pain component N=41
[23] = Visit 12, presumed or defined neuropathic
[24] = Visit 12, presumed or defined neuropathic pain component N=126
[25] = Visit 12, subjects with nociceptive pain N=49

## CC[C@@H](c1cccc(O)c1)[C@@H](C)CN(C)C [tapentadol, (−)-(1R,2R)-3-(3-dimethylamino-1-ethyl-2-methyl-propyl)-phenol]
Visit 8, positive diagnosis of lumbar radiculopathy-neuropathic pain subset N=44
  Depression score Median: 6.0
[1]
  Depression score Mean (SD): 6.4 (4.24)
  Depression score Median: 6.0
[2]
  Depression score change from baseline Mean (SD): −1.9 (3.30)
  Depression score change from baseline Median: −1.0
[3]
  Depression score Mean (SD): 6.4 (4.24)
  Depression score Median: 6.0
[4]
  Depression score Mean (SD): 5.5 (3.90)
  Depression score Median: 4.5
Visit 8, total
  Depression score change from baseline Mean (SD): −1.6 (3.09)
  Depression score change from baseline Median: −1.0
Visit 8, total subjects N=175
  Depression score Mean (SD): 6.2 (4.16)
  Depression score Median: 6.0
[5]
  Depression score Mean (SD): 6.5 (5.06)
  Depression score Median: 6.0
[6]
  Depression score Mean (SD): 6.2 (4.63)
  Depression score Median: 7.5
[7]
  Depression score Mean (SD): 6.4 (4.32)
  Depression score Median: 6.0
[8]
  Depression score Mean (SD): 6.5 (4.81)
  Depression score Median: 6.0
[9]
  Depression score Mean (SD): 5.4 (3.49)
  Depression score Median: 5.0
Visit 9, total subjects N=175
  Depression score Mean (SD): 6.1 (4.48)
  Depression score Median: 6.0
[10]
  Depression score Mean (SD): 6.5 (5.04)
  Depression score Median: 6.0
[11]
  Depression score Mean (SD): 6.2 (4.50)
  Depression score Median: 7.0
[12]
  Depression score Mean (SD): 6.4 (5.34)
  Depression score Median: 5.0
[13]
  Depression score Mean (SD): 6.5 (5.09)
  Depression score Median: 6.0
[14]
  Depression score Mean (SD): 5.5 (3.34)
  Depression score Median: 5.5
Visit 10, total subjects N=175
  Depression score Mean (SD): 6.2 (4.66)
  Depression score Median: 6.0
[15]
  Depression score Mean (SD): 5.9 (4.70)
  Depression score Median: 5.5
[16]
  Depression score Mean (SD): 6.0 (4.69)
  Depression score Median: 6.5
[17]
  Depression score Mean (SD): 6.4 (5.11)
  Depression score Median: 5.0
[18]
  Depression score Mean (SD): 6.0 (4.80)
  Depression score Median: 5.0
[19]
  Depression score Mean (SD): 5.6 (4.04)
  Depression score Median: 5.0
Visit 11, total subjects N=175
  Depression score Mean (SD): 5.9 (4.59)
  Depression score Median: 5.0
Visit 12
  Depression score change from baseline Mean (SD): −1.5 (3.30)
  Depression score change from baseline Median: −2.0
Visit 12, defined neuropathic
  Depression score change from baseline Mean (SD): −2.2 (3.31)
  Depression score change from baseline Median: −2.0
[20]
  Depression score Mean (SD): 5.8 (4.76)
  Depression score Median: 5.0
Visit 12, lumbar radiculopathy
  Depression score change from baseline Mean (SD): −2.1 (3.30)
  Depression score change from baseline Median: −1.0
Visit 12, nociceptive
  Depression score change from baseline Mean (SD): −0.5 (2.86)
  Depression score change from baseline Median: 0.0
[21]
  Depression score Mean (SD): 5.3 (4.09)
  Depression score Median: 5.0
[22]
  Depression score Mean (SD): 6.2 (4.66)
  Depression score Median: 5.0
[23]
  Depression score change from baseline Mean (SD): −2.0 (3.30)
  Depression score change from baseline Median: −2.0
[24]
  Depression score Mean (SD): 5.9 (4.70)
  Depression score Median: 5.0
[25]
  Depression score Mean (SD): 4.9 (3.13)
  Depression score Median: 4.0
Visit 12, total
  Depression score change from baseline Mean (SD): −1.6 (3.24)
  Depression score change from baseline Median: −2.0
Visit 12, total subjects N=175
  Depression score Mean (SD): 5.7 (4.35)
  Depression score Median: 5.0
Conclusion from the clinical data
  efficacy against depression: significant efficacy
Patient sub-population with low back pain with a neuropathic component
  depression (measured with HADS): significant improvement
